{
  "source": "patent US20240382498A1",
  "about": "“NOVEL INHIBITOR OF HYPE-MEDIATED AMPYLATION” (Purdue Research Foundation, priority 2023, published 2024)",
  "key": {"[1]": {"biological_target": "T1, E234G HYPE AMPylation of T229A BiP (Homo sapiens, UniProt Q9BVA6, E234G)", "T1 construct": "Δ102 (aa 103-458) HYPE constructs (WT, E234G, and E234G/H363A); His6-SUMO (cleaved yes); made in house; host or cells: E. coli BL21-DE3-RILP", "T1 sequence (Q9BVA6 103-458 E234G)": "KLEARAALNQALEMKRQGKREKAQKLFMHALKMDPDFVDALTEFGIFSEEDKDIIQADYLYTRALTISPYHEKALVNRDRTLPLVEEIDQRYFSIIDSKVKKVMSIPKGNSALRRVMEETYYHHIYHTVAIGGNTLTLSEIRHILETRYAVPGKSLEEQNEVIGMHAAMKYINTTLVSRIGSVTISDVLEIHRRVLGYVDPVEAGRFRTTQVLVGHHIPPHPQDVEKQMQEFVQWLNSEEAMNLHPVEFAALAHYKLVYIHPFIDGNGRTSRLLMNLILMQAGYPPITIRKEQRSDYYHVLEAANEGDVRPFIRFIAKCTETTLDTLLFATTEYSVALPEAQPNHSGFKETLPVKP", "test": "Fluorescence in-gel T229A BiP AMPylation assay with E234G HYPE and Fl-ATP", "assay_type": "biochemical", "settings": "10 μM compound", "description": "(§1) 1 μM of WT HYPE (final concentration) was preincubated with 10 μM DMSO-dissolved compound (final concentration) or equivalent volume of 100% DMSO at room temperature for 10 min. Reactions were run for 20 hr at 30° C. in the dark and began with the addition of 1 μM Fl-ATP (final concentration). Alternatively, E234G HYPE AMPylation reactions were run at 10 min due to its hyperactivity. All other parameters were held constant. All reactions were performed HTS Buffer (50 mM HEPES, 1 mM MgCl2, 0.1% Triton X-100, pH 7.50). All reactions were quenched with 4×SDS loading dye, boiled for 5 min at 95° C., and samples were run on 12% SDS-PAGE gels. Gels were imaged on a Typhoon 9500 FLA imager (General Electric) for fluorescence at 473 nm. Imaged gels were then stained with Coomassie Brilliant Blue, destained, and imaged for protein concentration. Where specified, 5 μM of T229A BiP (final concentration) was added to reactions before the addition of compound."}, "HEK 293 cells": {"system": "HEK 293 cells", "test": "MTT cell viability assay, HEK 293", "assay_type": "cell-based, human", "settings": "HEK 293, 10 μM, 48 hr", "description": "(§2) The cell lines were procured from ATCC (American Type Culture Collection) and cultured in DMEM (Dulbecco's Modified Eagle Medium) supplemented with 10% FBS (fetal bovine serum) without antibiotics. Cells were grown and maintained in a humidified incubator at 37° C. with 5% CO2. For the MTT assay, cells were trypsinized and harvested at ˜80-90% confluency and seeded in 96 well plates at a density of 1×10^4 cells per well. The seeded cells were incubated overnight and treated with 1 μM, 3 μM, 5 μM, 7 μM, 10 μM, 20 μM, 30 μM or 50 μM (final concentration) of DMSO-dissolved compound for 48 hr. To rule out vehicle induced toxicity, only 0.5% of final DMSO concentration was added to the cells. Post-incubation, the compound treatment was removed and replaced with 0.5 mg/ml (final concentration) of freshly prepared MTT solution. After incubating for 3.5 hr at 37° C., 5% CO2 humidified incubator, MTT was carefully removed without aspirating the formazan crystals and replaced with equivalent volume of DMSO to dissolve the formazan crystals. The plates were then read using a multi-plate reader at 570 nm. The absorbance was recorded and % viability was calculated according to the following equation:\n(§3) [formula] • where, Abt is the absorbance of compound treated cells and Abc is the absorbance of control cells."}, "E234G HYPE [2]": {"biological_target": "T2, E234G HYPE (Homo sapiens, UniProt Q9BVA6, E234G)", "T2 construct": "Δ102 (aa 103-458) HYPE constructs (WT, E234G, and E234G/H363A); His6-SUMO (cleaved yes); made in house; host or cells: E. coli BL21-DE3-RILP", "T2 sequence (Q9BVA6 103-458 E234G)": "T1 sequence (Q9BVA6 103-458 E234G)", "test": "Radioactive in-gel autoAMPylation assay with E234G HYPE and α-32P-ATP", "assay_type": "biochemical", "settings": "10 μM compound", "description": "(§4) 1 μM of HYPE (final concentration) and (where specified) 5 μM of T229A BiP (final concentration) were preincubated with 10 μM DMSO-dissolved compound (final concentration) or equivalent volume of 100% DMSO at room temperature for 10 min in HTS Buffer. Reactions were run for 10 min at 30° C. and began with the addition of 0.01 μCi/μL α-32P-ATP (final concentration). All reactions were performed according to our previously described protocol for in vitro radioactive AMPylation assays19. Where specified, 5 μM of T229A BiP (final concentration) was added to reactions before the addition of compound."}, "[3]": {"biological_target": "T1, E234G HYPE AMPylation of T229A BiP", "test": "Radioactive in-gel T229A BiP AMPylation assay with E234G HYPE and α-32P-ATP", "assay_type": "biochemical", "settings": "10 μM compound", "description": "as §4"}, "HeLa cells": {"system": "HeLa cells", "test": "MTT cell viability assay, HeLa", "assay_type": "cell-based, human", "settings": "48 hr", "description": "as §2, §3"}, "E234G HYPE [4]": {"biological_target": "T2, E234G HYPE", "test": "Fluorescence in-gel autoAMPylation assay with E234G HYPE and Fl-ATP", "assay_type": "biochemical", "settings": "10 μM compound", "description": "as §1"}},
  "data": [
    {"smiles": "c1cn(-c2ccc(-c3nnc(-c4ccoc4)o3)cn2)cn1", "note": "[Compound I2.10]", "values": [
      {"measurement": "inhibition of T229A BiP AMPylation in gel", "setting": "[1]", "value": "confirm the inhibitory properties"},
      {"measurement": "cell viability", "setting": "HEK 293 cells", "value": "~80", "unit": "%"},
      {"measurement": "inhibition of E234G HYPE autoAMPylation in gel", "setting": "E234G HYPE [2]", "value": "bioactivity of I2.10 is mirrored"},
      {"measurement": "inhibition of T229A BiP AMPylation in gel", "setting": "[3]", "value": "inhibitory efficacy against BiP AMPylation was reproducible"},
      {"measurement": "cell viability", "setting": "HeLa cells; HeLa (so in the source), 50 μM", "value": "~60", "unit": "%"},
      {"measurement": "cell viability", "setting": "HeLa cells; HeLa, up to 50 μM", "value": 100, "unit": "%"},
      {"measurement": "inhibition of E234G HYPE autoAMPylation in gel", "setting": "E234G HYPE [4]", "value": "consistently perturbs HYPE autoAMPylation"}
    ]}
  ]
}
